Reference: article PMC10891534, “The Staphylococcus aureus ArlS Kinase Inhibitor Tilmicosin Has Potent Anti-Biofilm Activity in Both Static and Flow Conditions” (Microorganisms, 2024)

Target: ArlS histidine kinase (ArlSHK) (Staphylococcus aureus, UniProt Q9KJN3)
Assay: Kinase-Glo luminescent ATPase/kinase assay with purified ArlSHK, […] ATP, dose-response
Assay type: biochemical

Sequence of ArlS histidine kinase (ArlSHK) (Q9KJN3 239-451): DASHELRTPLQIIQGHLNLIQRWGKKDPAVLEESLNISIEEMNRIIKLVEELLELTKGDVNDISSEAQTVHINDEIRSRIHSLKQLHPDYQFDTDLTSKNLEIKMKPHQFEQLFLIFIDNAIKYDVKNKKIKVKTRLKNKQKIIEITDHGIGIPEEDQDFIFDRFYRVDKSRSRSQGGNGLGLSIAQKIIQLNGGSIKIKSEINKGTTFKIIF

Q: Which IC50 does the source give for `CC[C@H]1OC(=O)C[C@@H](O)[C@H](C)[C@@H](O[C@@H]2O[C@H](C)[C@@H](O)[C@H](N(C)C)[C@H]2O)[C@@H](CCN2C[C@H](C)C[C@H](C)C2)C[C@@H](C)C(=O)/C=C/C(C)=C/[C@@H]1CO[C@@H]1O[C@H](C)[C@@H](O)[C@@H](OC)[C@H]1OC` [tilmicosin] here?
A: 1090 nM
